Measurements as given in ChEMBL document CHEMBL1955759, “Influence of susceptibility to hydrolysis and hydrophobicity of arylsemicarbazones on their anti-nociceptive and anti-inflammatory activities” (Eur J Med Chem, 2012).
Active and inactive are the calls of the source. The calls are words filed in the database; no cut-off is given here.

Columns and labels:
Mus musculus [1] = assay: Antinociceptive activity in Swiss mouse assessed inhibition of formaldehyde-induced paw licking at 0.31 mmol/kg, ip administered 30 mins prior to formaldehyde-challenge measured from 15 to 30 mins; assay type: functional, organism-based
Rattus norvegicus [2] = assay: Antiinflammatory activity in Wistar rat assessed as inhibition of carrageenan-induced paw edema at 0.62 mmol/kg, ip administered 30 mins prior to carrageenan-challenge measured up to 6 hrs; assay type: functional, organism-based
Mus musculus [3] = assay: Antinociceptive activity in Swiss mouse assessed inhibition of formaldehyde-induced paw licking at 0.31 mmol/kg, ip administered 30 mins prior to formaldehyde-challenge measured up to 5 mins; assay type: functional, organism-based
Rattus norvegicus [4] = assay: Antiinflammatory activity in Wistar rat assessed as inhibition of carrageenan-induced paw edema at 0.31 mmol/kg, ip administered 30 mins prior to carrageenan-challenge measured up to 6 hrs; assay type: functional, organism-based
Mus musculus [5] = assay: Antinociceptive activity in Swiss mouse assessed as inhibition of zymosan A-induced writhing response at 0.62 mmol/kg, ip administered 30 mins prior to zymosan A-challenge; assay type: functional, organism-based
[6] = n-Octanol-water distribution coefficient, log K of the compound by shake flask method; assay type: physicochemical; conditions: read-out: log KOW
Mus musculus [7] = assay: Antinociceptive activity in Swiss mouse assessed as inhibition of zymosan A-induced writhing response at 0.31 mmol/kg, ip administered 30 mins prior to zymosan A-challenge; assay type: functional, organism-based
Mus musculus [8] = assay: Antinociceptive activity in Swiss mouse assessed as inhibition of zymosan A-induced writhing response at 0.16 mmol/kg, ip administered 30 mins prior to zymosan A-challenge; assay type: functional, organism-based
Mus musculus [9] = assay: Antinociceptive activity in ip dosed Swiss mouse assessed as inhibition of zymosan A-induced writhing response administered 30 mins prior to zymosan A-challenge; assay type: functional
Mus musculus [10] = assay: Neurotoxicity in Swiss mouse assessed as motor coordination by measuring change in time spent on rotating rod at 0.62 mmol/kg, ip administered 30 mins prior to testing; assay type: toxicity, organism-based; conditions: in vivo, 0.5 h
Rattus norvegicus [11] = assay: Antiinflammatory activity in Wistar rat assessed as inhibition of carrageenan-induced paw edema at 0.31 mmol/kg, ip administered 30 mins prior to carrageenan-challenge measured at 2 hrs; assay type: functional, organism-based
Mus musculus [12] = assay: Antinociceptive activity in Swiss mouse assessed inhibition of formaldehyde-induced paw licking at 0.62 mmol/kg, ip administered 30 mins prior to formaldehyde-challenge measured from 15 to 30 mins; assay type: functional, organism-based
Mus musculus [13] = assay: Antinociceptive activity in Swiss mouse assessed inhibition of formaldehyde-induced paw licking at 0.62 mmol/kg, ip administered 30 mins prior to formaldehyde-challenge measured up to 5 mins; assay type: functional, organism-based
Rattus norvegicus [14] = assay: Antiinflammatory activity in Wistar rat assessed as inhibition of carrageenan-induced paw edema at 0.62 mmol/kg, ip administered 30 mins prior to carrageenan-challenge measured at 2 hrs; assay type: functional, organism-based

| logP [6] | Compound | inhibition (Mus musculus [1]) | inhibition (Rattus norvegicus [2]) | inhibition (Mus musculus [3]) | inhibition (Rattus norvegicus [4]) | inhibition (Mus musculus [5]) | inhibition (Mus musculus [7]) | other results |
| --- | --- | --- | --- | --- | --- | --- | --- | --- |
| – | NNC(N)=O | Active | Active | inactive | Active | – | – | – |
| – | O=Cc1ccccc1 | inactive | – | – | – | – | – | – |
| 0.43 | NC(=O)N/N=C/c1cccc(O)c1 | – | – | – | – | inactive | inactive | – |
| 0.31 | NC(=O)N/N=C/c1ccc(O)cc1 | – | – | – | – | inactive | inactive | – |
| 0.85 | NC(=O)N/N=C/c1ccccc1O | – | inactive | – | inactive | Active | Active | MED (Mus musculus [9]): 0.16 mmol/kg; Activity (Mus musculus [10]): Non-toxic; inhibition (Rattus norvegicus [11]): Active; inhibition (Mus musculus [12]): Active; inhibition (Mus musculus [13]): inactive; inhibition (Rattus norvegicus [14]): Active |

| Compound | logP [6] | inhibition (Mus musculus [1]) | inhibition (Rattus norvegicus [2]) | inhibition (Mus musculus [3]) | inhibition (Rattus norvegicus [4]) | inhibition (Mus musculus [5]) | inhibition (Mus musculus [7]) | other results |
| --- | --- | --- | --- | --- | --- | --- | --- | --- |
| NC(=O)N/N=C/c1ccccc1 | 0.91 | Active | inactive | Active | inactive | – | – | inhibition (Mus musculus [8]): inactive |
